Target: T1, Rab32 (Homo sapiens, UniProt Q13637)
T1 sequence (Q13637 1-225): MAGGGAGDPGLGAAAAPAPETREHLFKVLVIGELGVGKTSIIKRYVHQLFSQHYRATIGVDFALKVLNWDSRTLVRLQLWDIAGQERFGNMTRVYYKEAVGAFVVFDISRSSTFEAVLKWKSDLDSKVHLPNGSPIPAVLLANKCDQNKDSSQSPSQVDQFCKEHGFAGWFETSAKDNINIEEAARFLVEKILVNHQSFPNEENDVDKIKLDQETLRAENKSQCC
Experiment: radiolabelled nucleotide dissociation
Assay type: binding
Settings: labelled compound ([3H]GDP); pH 7.5, 50 mM Tris-HCl, high magnesium; GST fusion

t 1/2 (dissociation): 7.5 min
Compound: Nc1nc2c(ncn2[C@@H]2O[C@H](COP(=O)(O)OP(=O)(O)O)[C@@H](O)[C@H]2O)c(=O)[nH]1 [GDP]
